Experimental findings from ChEMBL document CHEMBL1201862, “PubChem BioAssay data set” (2004) are described below.

Data set [1] has as its target Voltage-gated inwardly rectifying potassium channel KCNH2 (Homo sapiens, UniProt Q12809). The experiment in a line: concentration-dependent hERG rescue from blockers – cell-based, thallium flux, dose response (AID 2121). It is filed as ADME.
The target of data set [2] is T1, Replicative DNA helicase DnaB (Mycobacterium tuberculosis, UniProt P9WMR3).
T1 sequence (P9WMR3 whole entry): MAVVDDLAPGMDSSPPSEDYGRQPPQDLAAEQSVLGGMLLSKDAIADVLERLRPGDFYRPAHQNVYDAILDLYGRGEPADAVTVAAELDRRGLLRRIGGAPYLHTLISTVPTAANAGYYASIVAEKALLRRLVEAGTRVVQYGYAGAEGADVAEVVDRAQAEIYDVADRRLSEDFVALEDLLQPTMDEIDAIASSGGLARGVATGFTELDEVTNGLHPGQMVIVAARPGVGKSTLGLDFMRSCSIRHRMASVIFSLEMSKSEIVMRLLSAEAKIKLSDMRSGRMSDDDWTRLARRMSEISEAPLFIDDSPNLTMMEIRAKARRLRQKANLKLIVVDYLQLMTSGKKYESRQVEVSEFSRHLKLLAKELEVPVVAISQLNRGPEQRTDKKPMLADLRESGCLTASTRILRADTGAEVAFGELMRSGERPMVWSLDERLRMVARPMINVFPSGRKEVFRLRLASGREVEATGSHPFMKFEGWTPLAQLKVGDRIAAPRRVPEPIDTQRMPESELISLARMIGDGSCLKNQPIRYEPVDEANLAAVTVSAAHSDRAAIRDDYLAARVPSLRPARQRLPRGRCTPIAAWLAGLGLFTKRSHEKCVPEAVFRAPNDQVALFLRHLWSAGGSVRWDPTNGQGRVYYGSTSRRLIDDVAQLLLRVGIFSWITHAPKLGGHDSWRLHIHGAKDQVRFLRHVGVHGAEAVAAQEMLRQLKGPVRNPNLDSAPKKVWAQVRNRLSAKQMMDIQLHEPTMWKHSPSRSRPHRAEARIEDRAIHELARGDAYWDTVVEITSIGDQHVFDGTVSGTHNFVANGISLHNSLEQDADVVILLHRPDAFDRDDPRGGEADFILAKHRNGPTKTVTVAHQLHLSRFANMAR
Description: DnaB intein splicing inhibitors, dose response, biochemical, cell-free fluorescence (AID 449749). It is filed as functional.

For a further data set, the target named is T2, Protein RecA (Mycobacterium tuberculosis, UniProt P9WHJ3).
T2 sequence (P9WHJ3 whole entry): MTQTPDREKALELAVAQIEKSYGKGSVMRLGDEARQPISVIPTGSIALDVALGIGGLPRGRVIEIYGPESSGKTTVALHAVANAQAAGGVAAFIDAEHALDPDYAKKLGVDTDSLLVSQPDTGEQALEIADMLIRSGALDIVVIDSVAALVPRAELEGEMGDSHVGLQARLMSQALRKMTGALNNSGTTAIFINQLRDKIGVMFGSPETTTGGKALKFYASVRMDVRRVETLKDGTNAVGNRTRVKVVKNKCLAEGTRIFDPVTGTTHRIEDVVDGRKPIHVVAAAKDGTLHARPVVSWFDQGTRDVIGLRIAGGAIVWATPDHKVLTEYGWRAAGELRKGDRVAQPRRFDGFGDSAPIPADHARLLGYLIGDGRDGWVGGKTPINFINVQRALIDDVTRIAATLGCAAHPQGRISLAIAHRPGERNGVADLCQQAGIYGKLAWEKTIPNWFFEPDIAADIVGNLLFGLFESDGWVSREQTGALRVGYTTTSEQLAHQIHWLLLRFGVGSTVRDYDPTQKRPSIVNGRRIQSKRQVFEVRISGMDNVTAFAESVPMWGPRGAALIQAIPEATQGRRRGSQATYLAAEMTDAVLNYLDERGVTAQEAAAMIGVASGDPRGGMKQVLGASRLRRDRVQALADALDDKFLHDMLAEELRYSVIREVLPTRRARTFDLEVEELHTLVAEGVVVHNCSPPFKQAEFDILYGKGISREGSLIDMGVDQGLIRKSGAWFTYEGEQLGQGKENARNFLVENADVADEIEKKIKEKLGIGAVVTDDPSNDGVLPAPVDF
The experiment in a line: Fluorescence Cell-Free Homogeneous Dose Retest to Identify Inhibitors of RecA-Intein Splicing Activity. [Related pubchem assays (depositor defined):AID2097, AID2223, AID489010, AID492950]. It is filed as functional.

The target in a further data set is Cytochrome P450 2D6 (Homo sapiens, UniProt P10635).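 Note: CYP2D6 member of a cytochrome P450 panel assay.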
Data set [3] is described as follows: Luminescence Cell-Based Dose Response to Identify Activators of 5'UTR Stem-Loop Driven Prion Protein mRNA Translation in H4-C Neuroglioblastoma Cells. [Related pubchem assays: 1829 (Project Summary), 1814 (Primary HTS)]. It is filed as functional.
The nature of data set [4]: Luminescence Cell-Based Dose Response HTS to Identify Activators of Luciferase Translation or Activity in H4 […] Cells. [Related pubchem assays: 1829 (Project Summary), 1814 (Primary HTS)]. It is filed as functional.
A further data set deals with H4. The experiment in a line: Luminescence Cell-Based Dose Response HTS to Identify Activators of 5'UTR Stem-Loop Driven Prion Protein mRNA Translation in H4 Neuroglioblastoma Cells. [Related pubchem assays: 1829 (Project Summary), 1814 (Primary HTS)]. It is filed as functional. The conditions noted are these: Homo sapiens.
Data set [5] in a line: Luminescence Cell-Based Dose Response to Identify Activators of Luciferase Translation or Activity in H4-C Neuroglioblastoma Cells. [Related pubchem assays: 1829 (Project Summary), 1814 (Primary HTS)]. It is filed as functional.
The next data set has as its target T3, Estrogen receptor (Homo sapiens, UniProt P03372).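 Note: potency for inhibiting coactivator peptide recruitment to the receptor.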
T3 sequence (P03372 whole entry): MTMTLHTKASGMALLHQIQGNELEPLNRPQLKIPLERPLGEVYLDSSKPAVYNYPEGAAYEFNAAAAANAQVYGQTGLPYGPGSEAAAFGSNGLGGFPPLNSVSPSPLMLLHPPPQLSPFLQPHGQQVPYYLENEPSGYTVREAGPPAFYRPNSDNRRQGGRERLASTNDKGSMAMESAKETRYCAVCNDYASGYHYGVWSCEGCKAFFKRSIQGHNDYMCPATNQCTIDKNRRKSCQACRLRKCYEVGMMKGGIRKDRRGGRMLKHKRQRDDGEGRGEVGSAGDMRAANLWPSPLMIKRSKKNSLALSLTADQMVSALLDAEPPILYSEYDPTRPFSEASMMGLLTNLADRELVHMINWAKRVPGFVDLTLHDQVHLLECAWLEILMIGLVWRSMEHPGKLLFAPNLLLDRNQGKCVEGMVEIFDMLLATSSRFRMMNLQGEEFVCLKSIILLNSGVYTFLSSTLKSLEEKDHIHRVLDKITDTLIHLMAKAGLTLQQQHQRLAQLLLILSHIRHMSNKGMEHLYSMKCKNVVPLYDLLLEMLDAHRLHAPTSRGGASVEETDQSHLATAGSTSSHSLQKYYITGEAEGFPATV

A short description of data set [6]: Luminescence Cell-Based Dose Confirmation to Identify Activators of 5'UTR Stem-Loop Driven Alpha-Synuclein mRNA Translation in H4 Neuroglioblastoma Cells. [Related pubchem assays: 1829 (Project Summary), 1814 (Primary HTS)]. It is filed as functional.
Data set [7] in a line: Luminescence Cell-Based Dose Retest to Confirm Inhibitors of Cancer Stem Cells. [Related pubchem assays (depositor defined):AID2717, AID2721]. It is filed as functional. The conditions noted are these: Homo sapiens.
Another data set concerns the target Cytochrome P450 2C19 (Homo sapiens, UniProt P33261). The experiment in a line: Cytochrome panel assay with activity outcomes. Panel member name: p450-cyp2c19 Compounds with AC50 equal or less than 10 uM are considered active. It is filed as functional. The conditions noted are these: read-out: AC50.
For another data set, the target named is T4, Cytochrome P450 1A2 (Homo sapiens, UniProt P05177).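 Note: PubChem cytochrome P450 panel assay, CYP1A2 panel member.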
T4 sequence (P05177 whole entry): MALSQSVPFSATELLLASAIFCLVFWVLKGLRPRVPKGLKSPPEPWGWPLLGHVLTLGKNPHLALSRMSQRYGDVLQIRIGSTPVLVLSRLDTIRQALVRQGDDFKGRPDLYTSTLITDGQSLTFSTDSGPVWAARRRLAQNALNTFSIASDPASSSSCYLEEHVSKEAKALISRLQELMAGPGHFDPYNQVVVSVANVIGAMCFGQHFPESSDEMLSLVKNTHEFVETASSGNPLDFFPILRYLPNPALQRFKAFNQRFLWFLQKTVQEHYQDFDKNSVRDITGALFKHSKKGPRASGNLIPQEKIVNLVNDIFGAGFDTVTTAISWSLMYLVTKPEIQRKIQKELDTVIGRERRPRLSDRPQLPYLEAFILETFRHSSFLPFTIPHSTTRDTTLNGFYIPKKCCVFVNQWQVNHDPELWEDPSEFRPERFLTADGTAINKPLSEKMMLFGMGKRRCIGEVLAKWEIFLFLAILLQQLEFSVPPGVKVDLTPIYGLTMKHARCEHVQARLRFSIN

A further data set concerns the target Cytochrome P450 2C9 (Homo sapiens, UniProt P11712).
For another data set, the system named is Vero. Description: mammalian cell viability reduction – secondary assay, cytotoxicity control for West Nile virus antiviral project, dose response (AID 1650). It is filed as functional. The conditions noted are these: Chlorocebus sabaeus.
The nature of data set [8]: viability loss in Vero cells – cytotoxicity control for Vif-APOBEC3G degradation inhibitor project, dose response (AID 1117358). It is filed as functional. The conditions noted are these: Vero.
Data set [9] deals with Serine/threonine-protein phosphatase PP1-alpha catalytic subunit (Homo sapiens, UniProt P62136). Description: inhibition of protein phosphatase 1 activity – biochemical, fluorescence, dose response (AID 2394).
The target of data set [10] is Serine/threonine-protein phosphatase (Homo sapiens, UniProt Q9BPW0). The experiment in a line: inhibition of protein phosphatase 5 activity – biochemical, fluorescence, dose response (AID 2395).
Data set [11] addresses Glucose-6-phosphate 1-dehydrogenase (Homo sapiens, UniProt P11413). Description: inhibition of Homo sapiens G6PD, dose series – biochemical, fluorescence, selectivity assay for P. falciparum G6PD inhibitor project, dose response (AID 504792). It is filed as functional.
Data set [12] has as its target T5, Apoptotic protease-activating factor 1 (Homo sapiens, UniProt O14727).
T5 sequence (O14727 whole entry): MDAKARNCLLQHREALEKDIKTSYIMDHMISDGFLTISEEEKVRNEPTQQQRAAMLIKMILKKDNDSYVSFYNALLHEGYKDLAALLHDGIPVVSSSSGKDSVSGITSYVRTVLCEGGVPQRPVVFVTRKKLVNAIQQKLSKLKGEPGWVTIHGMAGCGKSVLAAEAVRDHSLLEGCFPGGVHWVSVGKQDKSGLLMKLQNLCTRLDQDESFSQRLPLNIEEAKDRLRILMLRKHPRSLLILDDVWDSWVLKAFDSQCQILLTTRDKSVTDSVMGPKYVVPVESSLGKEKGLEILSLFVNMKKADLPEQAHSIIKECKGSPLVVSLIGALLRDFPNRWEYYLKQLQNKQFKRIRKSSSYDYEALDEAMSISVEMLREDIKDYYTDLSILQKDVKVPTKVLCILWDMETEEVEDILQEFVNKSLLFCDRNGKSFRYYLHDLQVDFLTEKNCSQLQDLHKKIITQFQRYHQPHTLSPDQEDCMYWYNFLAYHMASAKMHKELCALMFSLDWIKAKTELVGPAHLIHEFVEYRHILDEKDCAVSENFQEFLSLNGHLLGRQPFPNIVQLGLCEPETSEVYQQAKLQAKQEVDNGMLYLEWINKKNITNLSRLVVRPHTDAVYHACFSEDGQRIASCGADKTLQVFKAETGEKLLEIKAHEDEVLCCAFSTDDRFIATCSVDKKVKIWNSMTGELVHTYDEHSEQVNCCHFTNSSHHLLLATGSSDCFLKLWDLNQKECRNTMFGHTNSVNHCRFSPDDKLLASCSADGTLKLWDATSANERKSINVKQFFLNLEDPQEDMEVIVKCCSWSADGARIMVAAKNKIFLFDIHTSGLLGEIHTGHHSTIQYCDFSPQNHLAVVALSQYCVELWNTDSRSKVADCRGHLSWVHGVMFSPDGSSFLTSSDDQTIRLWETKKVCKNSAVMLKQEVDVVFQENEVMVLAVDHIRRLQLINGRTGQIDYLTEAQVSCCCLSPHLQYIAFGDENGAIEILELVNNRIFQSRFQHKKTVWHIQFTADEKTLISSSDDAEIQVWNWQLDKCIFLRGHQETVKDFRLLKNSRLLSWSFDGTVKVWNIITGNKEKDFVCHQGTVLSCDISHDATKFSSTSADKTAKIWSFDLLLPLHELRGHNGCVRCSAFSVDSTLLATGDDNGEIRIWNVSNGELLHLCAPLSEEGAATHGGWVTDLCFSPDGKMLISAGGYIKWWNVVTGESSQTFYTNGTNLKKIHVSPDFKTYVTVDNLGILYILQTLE
It is filed as functional.

A further data set addresses Genome polyprotein (dengue virus type 2, UniProt P29990). The experiment in a line: flavivirus cap methylation enzyme inhibition – biochemical, confirmation dose response, primary screen (AID 588689). It is filed as functional.

Calls of active or inactive are those of the source.

Glucose-6-phosphate 1-dehydrogenase, sequence (P11413 whole entry): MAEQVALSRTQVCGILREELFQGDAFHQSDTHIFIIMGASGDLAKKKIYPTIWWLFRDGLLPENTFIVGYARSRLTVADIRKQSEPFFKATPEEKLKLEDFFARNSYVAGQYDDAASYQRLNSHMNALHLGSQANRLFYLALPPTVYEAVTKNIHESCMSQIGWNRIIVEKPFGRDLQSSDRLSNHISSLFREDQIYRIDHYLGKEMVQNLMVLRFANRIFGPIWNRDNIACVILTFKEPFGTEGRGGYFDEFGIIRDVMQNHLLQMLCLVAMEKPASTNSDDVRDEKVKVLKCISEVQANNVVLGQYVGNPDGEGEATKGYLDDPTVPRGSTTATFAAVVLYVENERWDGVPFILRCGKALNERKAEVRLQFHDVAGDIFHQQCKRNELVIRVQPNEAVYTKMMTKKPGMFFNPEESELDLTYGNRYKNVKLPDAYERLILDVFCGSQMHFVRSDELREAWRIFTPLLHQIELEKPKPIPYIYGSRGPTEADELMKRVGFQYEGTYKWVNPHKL
Cytochrome P450 2C9, sequence (P11712 whole entry): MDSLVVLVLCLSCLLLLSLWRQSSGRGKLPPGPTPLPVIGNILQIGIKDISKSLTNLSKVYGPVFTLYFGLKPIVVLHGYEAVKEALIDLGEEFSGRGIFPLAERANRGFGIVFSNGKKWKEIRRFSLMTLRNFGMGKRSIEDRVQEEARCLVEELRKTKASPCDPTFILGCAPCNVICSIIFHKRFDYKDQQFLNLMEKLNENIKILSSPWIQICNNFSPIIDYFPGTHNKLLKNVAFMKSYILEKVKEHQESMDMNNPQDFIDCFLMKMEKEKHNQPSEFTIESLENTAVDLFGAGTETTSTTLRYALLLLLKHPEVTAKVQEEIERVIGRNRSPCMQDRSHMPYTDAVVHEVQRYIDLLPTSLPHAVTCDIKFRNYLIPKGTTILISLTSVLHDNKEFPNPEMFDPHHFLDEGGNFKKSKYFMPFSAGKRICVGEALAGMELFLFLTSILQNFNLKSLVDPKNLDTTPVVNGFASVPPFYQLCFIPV
Voltage-gated inwardly rectifying potassium channel KCNH2, sequence (Q12809 whole entry): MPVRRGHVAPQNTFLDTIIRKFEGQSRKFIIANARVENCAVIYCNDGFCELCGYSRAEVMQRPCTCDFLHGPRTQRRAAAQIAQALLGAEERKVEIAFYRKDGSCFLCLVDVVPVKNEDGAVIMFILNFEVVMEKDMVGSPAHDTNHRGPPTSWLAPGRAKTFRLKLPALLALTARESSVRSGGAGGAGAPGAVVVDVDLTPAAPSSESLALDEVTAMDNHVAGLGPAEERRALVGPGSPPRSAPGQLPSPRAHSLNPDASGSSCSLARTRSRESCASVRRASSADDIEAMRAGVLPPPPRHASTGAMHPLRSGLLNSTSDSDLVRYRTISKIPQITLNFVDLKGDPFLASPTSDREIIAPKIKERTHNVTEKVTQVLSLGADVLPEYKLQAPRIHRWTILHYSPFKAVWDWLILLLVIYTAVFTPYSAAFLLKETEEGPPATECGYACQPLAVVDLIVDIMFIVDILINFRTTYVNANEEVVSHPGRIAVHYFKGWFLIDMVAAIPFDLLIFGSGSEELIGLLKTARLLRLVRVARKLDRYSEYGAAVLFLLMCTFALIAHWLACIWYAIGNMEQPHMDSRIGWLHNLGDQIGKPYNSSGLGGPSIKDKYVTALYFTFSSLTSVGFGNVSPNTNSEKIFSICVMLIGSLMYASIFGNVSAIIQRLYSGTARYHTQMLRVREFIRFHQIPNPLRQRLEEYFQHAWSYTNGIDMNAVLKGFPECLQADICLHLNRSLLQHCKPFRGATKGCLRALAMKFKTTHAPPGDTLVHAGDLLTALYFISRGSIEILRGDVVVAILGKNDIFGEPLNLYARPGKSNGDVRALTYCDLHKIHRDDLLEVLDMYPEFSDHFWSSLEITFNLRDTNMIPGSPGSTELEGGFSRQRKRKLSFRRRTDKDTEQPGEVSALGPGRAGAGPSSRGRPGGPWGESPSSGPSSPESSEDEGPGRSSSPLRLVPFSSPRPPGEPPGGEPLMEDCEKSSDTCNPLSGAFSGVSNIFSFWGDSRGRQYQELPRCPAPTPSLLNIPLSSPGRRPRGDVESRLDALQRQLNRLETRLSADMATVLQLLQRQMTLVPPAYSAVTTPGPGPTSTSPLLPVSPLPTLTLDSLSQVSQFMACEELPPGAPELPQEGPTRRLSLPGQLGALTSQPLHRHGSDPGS
Serine/threonine-protein phosphatase, sequence (Q9BPW0 whole entry): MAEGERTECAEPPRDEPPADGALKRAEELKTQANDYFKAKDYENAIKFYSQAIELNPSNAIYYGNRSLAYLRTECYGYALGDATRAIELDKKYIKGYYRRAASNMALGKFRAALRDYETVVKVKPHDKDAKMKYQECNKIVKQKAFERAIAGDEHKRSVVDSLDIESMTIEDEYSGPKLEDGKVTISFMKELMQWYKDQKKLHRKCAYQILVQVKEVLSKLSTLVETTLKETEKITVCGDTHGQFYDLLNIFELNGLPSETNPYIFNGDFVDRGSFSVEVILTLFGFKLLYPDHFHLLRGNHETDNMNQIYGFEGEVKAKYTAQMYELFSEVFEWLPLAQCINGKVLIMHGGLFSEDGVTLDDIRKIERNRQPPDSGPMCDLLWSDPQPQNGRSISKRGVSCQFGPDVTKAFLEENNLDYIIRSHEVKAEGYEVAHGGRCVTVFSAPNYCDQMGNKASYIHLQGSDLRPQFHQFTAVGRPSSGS
Serine/threonine-protein phosphatase PP1-alpha catalytic subunit, sequence (P62136 whole entry): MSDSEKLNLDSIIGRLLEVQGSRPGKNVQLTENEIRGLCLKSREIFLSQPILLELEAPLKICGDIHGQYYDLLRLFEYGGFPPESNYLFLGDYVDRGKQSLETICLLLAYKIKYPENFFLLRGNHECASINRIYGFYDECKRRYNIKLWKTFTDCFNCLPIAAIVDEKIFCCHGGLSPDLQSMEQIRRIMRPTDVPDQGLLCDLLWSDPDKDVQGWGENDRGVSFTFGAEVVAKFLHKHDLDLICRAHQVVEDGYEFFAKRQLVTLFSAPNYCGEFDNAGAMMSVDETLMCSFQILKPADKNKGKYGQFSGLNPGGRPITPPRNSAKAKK
Genome polyprotein, sequence (P29990 2492-3391 limits assumed): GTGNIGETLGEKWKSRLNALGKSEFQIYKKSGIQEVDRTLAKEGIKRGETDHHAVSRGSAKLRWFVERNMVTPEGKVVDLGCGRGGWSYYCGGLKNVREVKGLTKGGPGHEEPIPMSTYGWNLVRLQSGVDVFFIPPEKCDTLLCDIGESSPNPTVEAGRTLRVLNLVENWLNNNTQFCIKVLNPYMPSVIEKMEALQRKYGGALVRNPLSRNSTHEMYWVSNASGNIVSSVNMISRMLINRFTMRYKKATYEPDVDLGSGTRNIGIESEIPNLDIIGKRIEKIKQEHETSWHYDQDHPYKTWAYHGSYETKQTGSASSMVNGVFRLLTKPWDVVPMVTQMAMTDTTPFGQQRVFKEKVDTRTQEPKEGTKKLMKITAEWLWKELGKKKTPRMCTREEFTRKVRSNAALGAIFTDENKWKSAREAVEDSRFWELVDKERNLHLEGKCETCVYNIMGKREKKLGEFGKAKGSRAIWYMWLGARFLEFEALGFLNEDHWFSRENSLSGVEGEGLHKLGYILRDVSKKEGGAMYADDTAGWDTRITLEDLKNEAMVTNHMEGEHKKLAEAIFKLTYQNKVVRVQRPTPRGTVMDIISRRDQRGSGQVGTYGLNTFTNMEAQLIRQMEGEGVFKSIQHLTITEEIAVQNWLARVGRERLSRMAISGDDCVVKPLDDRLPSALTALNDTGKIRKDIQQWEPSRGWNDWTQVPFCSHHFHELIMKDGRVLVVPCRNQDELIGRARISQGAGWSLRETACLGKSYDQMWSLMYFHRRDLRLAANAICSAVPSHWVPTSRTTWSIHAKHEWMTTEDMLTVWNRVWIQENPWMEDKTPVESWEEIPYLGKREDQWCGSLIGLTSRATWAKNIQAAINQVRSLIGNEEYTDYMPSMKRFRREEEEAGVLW
Cytochrome P450 2C19, sequence (P33261 whole entry): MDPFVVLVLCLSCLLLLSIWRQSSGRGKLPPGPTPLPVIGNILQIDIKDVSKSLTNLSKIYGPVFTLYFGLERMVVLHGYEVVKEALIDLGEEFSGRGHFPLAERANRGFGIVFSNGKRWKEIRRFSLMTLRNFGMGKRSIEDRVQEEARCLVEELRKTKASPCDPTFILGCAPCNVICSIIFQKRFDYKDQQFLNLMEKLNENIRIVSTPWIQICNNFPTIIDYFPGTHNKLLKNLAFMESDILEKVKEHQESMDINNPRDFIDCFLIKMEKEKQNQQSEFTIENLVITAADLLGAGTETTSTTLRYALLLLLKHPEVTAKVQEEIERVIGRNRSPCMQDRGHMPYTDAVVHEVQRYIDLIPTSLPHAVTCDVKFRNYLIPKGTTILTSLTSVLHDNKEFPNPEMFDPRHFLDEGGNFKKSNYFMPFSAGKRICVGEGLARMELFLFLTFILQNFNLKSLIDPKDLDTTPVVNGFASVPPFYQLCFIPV
Cytochrome P450 2D6, sequence (P10635 whole entry): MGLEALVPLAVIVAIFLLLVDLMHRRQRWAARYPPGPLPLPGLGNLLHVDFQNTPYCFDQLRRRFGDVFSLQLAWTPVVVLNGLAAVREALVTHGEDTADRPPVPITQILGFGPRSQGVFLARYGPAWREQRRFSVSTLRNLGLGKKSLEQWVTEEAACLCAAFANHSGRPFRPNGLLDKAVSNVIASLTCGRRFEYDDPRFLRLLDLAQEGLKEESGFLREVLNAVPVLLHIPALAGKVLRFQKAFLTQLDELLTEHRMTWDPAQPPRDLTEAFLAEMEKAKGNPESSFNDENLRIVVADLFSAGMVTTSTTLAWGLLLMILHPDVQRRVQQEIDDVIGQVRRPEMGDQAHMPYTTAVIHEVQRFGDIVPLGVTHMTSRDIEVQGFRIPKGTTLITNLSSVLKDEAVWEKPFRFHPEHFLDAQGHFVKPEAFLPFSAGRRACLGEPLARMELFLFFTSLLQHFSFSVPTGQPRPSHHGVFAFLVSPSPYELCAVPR

Regarding `CN1C(=O)/C(=N\OC(=O)c2cccc3ccccc23)c2ccccc21`, the EC50 in [1] is 1.17 µM (active); on Protein RecA it was 15 µM (active). Further, the half-maximal activity concentration (AC50) in [2] is 7.38 µM (active); at Cytochrome P450 2D6, 12.6 µM (inconclusive).

In the case of `CCCc1cc2c(=O)c(-c3ccc4c(c3)OCCO4)coc2cc1OC(=O)c1ccco1`, the EC50 in data set [3] was 0.306 µM (active); in data set [4], < 0.1 µM (active); in the data set with H4, > 120 µM (not active); in data set [5], 0.376 µM (active); in data set [6], 0.388 µM (active). Moreover, at Estrogen receptor, the IC50 is given as > 50 µM (not active). Further, the AC50 was 3.85 µM (active) in data set [7], 2.51 µM (inconclusive) at Cytochrome P450 2C19, 2 µM (inconclusive) on Cytochrome P450 1A2 and “inconclusive” on Cytochrome P450 2C9.

In the case of `Cc1cc(C)n(Cc2ccc(NC(=O)c3nn(C)cc3[N+](=O)[O-])cc2)n1`, the 50% cytotoxic concentration (CC50) was 9.3 µM (active) with Vero and 20.8 µM (active) in data set [8].

For the compound `COC(=O)CCC(=O)OC1(C)C(=O)C2=CN(C3CC3)C(c3ccc(OC)cc3)=CC2=C(Br)C1=O` (stereo unspecified), the IC50 is 46.2 µM (not active) in [9]; 8.96 µM (active) in data set [10]; 31.1 µM (inactive) in data set [11]; 22 µM (active) in data set [12]; > 100 µM (active) at Genome polyprotein.

The EC50 is the midpoint of the concentration-response curve. For orientation: AC50 means the concentration giving half of the maximal activity seen. As usually defined, the IC50 is the point on the concentration scale where inhibition reaches its midpoint. Broadly, the CC50 is the concentration giving 50% cytotoxicity.
